Molecules are shown by their SMILES. Several values for one entry are separate records, joined by “and”; a condition that tells them apart may be missing. Equal entries are not always repeated. Inconclusive results and toxic doses are left out.

The subject of this experiment is P388 leukemia ip, CD2F1 mice, survival T/C. Briefly: NCI In Vivo Anticancer Drug Screen. Data for tumor model P388 Leukemia (intraperitoneal) in CD2F1 (CDF1) mice. To be noted: endpoint: median survival time, higher = longer survival. The gist of the method:
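Mice carrying the transplanted tumor received test compound or vehicle. Survival was recorded in each group, and the value is the treated-group measurement divided by that of the vehicle-treated control group.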

Where [1] appears, read: dose: 100.0 mg/kg/injection, schedule: Q01DX009 (ip), vehicle: saline with Tween-80.
Setting [2] is: dose: 200.0 mg/kg/injection, schedule: Q01DX009 (ip), vehicle: saline with Tween-80.
The mark [3] stands for this setting: dose: 100.0 mg/kg/injection, schedule: Q04DX003 (ip), vehicle: saline with Tween-80.
The mark [4] stands for this setting: dose: 200.0 mg/kg/injection, schedule: Q04DX003 (ip), vehicle: saline with Tween-80.
Where [5] appears, read: dose: 60.0 mg/kg/injection, schedule: Q01DX005 (ip), vehicle: saline with Tween-80.
Where [6] appears, read: dose: 120.0 mg/kg/injection, schedule: Q01DX005 (ip), vehicle: saline with Tween-80.
The mark [7] stands for this setting: dose: 240.0 mg/kg/injection, schedule: Q01DX005 (ip), vehicle: saline with Tween-80.
The mark [8] stands for this setting: dose: 100.0 mg/kg/injection, schedule: Q01DX009 (ip), vehicle: Klucel (hydroxypropylcellulose) (HPC).
[9] abbreviates: dose: 200.0 mg/kg/injection, schedule: Q01DX009 (ip), vehicle: Klucel (hydroxypropylcellulose) (HPC).
Where [10] appears, read: dose: 50.0 mg/kg/injection, schedule: Q01DX005 (ip), vehicle: saline with Tween-80.
Setting [11] is: dose: 100.0 mg/kg/injection, schedule: Q01DX005 (ip), vehicle: saline with Tween-80.

For `CC1=CC(=O)C(O)C2(C)C1CC1OC(=O)C(OC(=O)CC(C)(C)O)C3C(C)C(O)C4(O)OCC13C42` (stereo not given), the T/C is 115 % of control (dose: 0.5 mg/kg/injection, schedule: Q01DX009 (ip), vehicle: saline + alcohol); 118 % of control (dose: 1.0 mg/kg/injection, schedule: Q01DX009 (ip), vehicle: saline + alcohol); 119 % of control (dose: 2.0 mg/kg/injection, schedule: Q01DX009 (ip), vehicle: saline + alcohol); 118 % of control (dose: 8.0 mg/kg/injection, schedule: Q01DX009 (ip), vehicle: saline + alcohol).

Turning to `CCN(CC)CCCC(C)Nc1nccc2c(Cl)cccc12` (stereo not given), the T/C is, setting by setting: (dose: 50.0 mg/kg/injection, schedule: Q01DX005 (ip), vehicle: saline) 108 % of control; (dose: 100.0 mg/kg/injection, schedule: Q01DX005 (ip), vehicle: saline) 109 % of control.

Regarding `COc1cccc2c1C(=O)c1c(O)c3c(c(O)c1C2=O)CC(O)(c1csc(-c2ccccc2)n1)CC3O` (stereo not given), the T/C is 106 % of control (dose: 1.56 mg/kg/injection, schedule: Q01DX009 (ip), vehicle: water); 100 % of control (dose: 3.13 mg/kg/injection, schedule: Q01DX009 (ip), vehicle: water); 109 % of control (dose: 6.25 mg/kg/injection, schedule: Q01DX009 (ip), vehicle: water); 109 % of control (dose: 12.5 mg/kg/injection, schedule: Q01DX009 (ip), vehicle: water); 103 % of control (dose: 25.0 mg/kg/injection, schedule: Q01DX009 (ip), vehicle: water); 108 % of control (dose: 50.0 mg/kg/injection, schedule: Q01DX009 (ip), vehicle: water).

As for `C=C1CC2(CCCc3ccccc32)OC1=O` (stereo not given), the T/C was 101 % of control (dose: 100.0 mg/kg/injection, schedule: Q01DX001 (ip), vehicle: saline); 102 % of control (dose: 200.0 mg/kg/injection, schedule: Q01DX001 (ip), vehicle: saline); 101 % of control (dose: 400.0 mg/kg/injection, schedule: Q01DX001 (ip), vehicle: saline).

Take `CC(=O)CC(=O)CCCC(=O)O`: the T/C runs as follows: (dose: 50.0 mg/kg/injection, schedule: Q01DX009 (ip), vehicle: saline with Tween-80) 96 % of control; under setting [1], 99 % of control; under setting [2], 104 % of control.

As for `O=S(=O)(CCNCCCCC1CCCCC1)SCCNCCCCC1CCCCC1`, the T/C by setting is: (dose: 6.25 mg/kg/injection, schedule: Q01DX005 (ip), vehicle: Klucel (hydroxypropylcellulose) (HPC)) 100 % of control; (dose: 12.5 mg/kg/injection, schedule: Q01DX005 (ip), vehicle: Klucel (hydroxypropylcellulose) (HPC)) 101 % of control; (dose: 25.0 mg/kg/injection, schedule: Q01DX005 (ip), vehicle: Klucel (hydroxypropylcellulose) (HPC)) 95 % of control.

Consider `O=S1(=O)CC2(N3CCOCC3)C3CCC(C3)C21` (stereo not given), for which the T/C (dose: 50.0 mg/kg/injection, schedule: Q04DX003 (ip), vehicle: saline with Tween-80) was 99 % of control and 101 % of control; the T/C under setting [3] was 100 % of control and 104 % of control; the T/C under setting [4] was 101 % of control and 104 % of control.

For `CCN(CC)C(=O)C(F)Cl` (stereo not given), the T/C by setting is: under setting [5], 88 % of control; under setting [6], 88 % of control; under setting [7], 95 % of control.

Take `CCC(c1ccc(C(C)=O)c(O)c1)C(CC)c1ccc(C(C)=O)c(O)c1` (stereo not given): the T/C by setting is: under setting [5], 97 % of control; under setting [6], 90 % of control; under setting [7], 88 % of control.

`CC(C)C(=O)N1CCCCCCN1C(=O)C(C)C`: the T/C is, setting by setting: under setting [8], 107 % of control; under setting [9], 111 % of control.

Regarding `O=C1C=CC(=O)N1C(=O)NCNC(=O)N1C(=O)C=CC1=O`, the T/C by setting is: (dose: 25.0 mg/kg/injection, schedule: Q01DX005 (ip), vehicle: saline with Tween-80) 99 % of control and 107 % of control; under setting [10], 103 % of control (2×) and 106 % of control; under setting [11], 103 % of control and 121 % of control.

Regarding `CNc1nncc(=O)[nH]1`, the T/C was 107 % of control (dose: 50.0 mg/kg/injection, schedule: Q01DX009 (ip), vehicle: Klucel (hydroxypropylcellulose) (HPC)); 107 % of control under setting [8]; 99 % of control under setting [9].

In the case of `CSc1nc(N)c(N=O)c(N)n1`, the T/C was 100 % of control (dose: 50.0 mg/kg/injection, schedule: Q04DX002 (ip), vehicle: suspension in saline); 101 % of control (dose: 100.0 mg/kg/injection, schedule: Q04DX002 (ip), vehicle: suspension in saline); 104 % of control (dose: 200.0 mg/kg/injection, schedule: Q04DX002 (ip), vehicle: suspension in saline).

`CCN(Cc1ccc(Cl)c(Cl)c1)c1ccc2nc(N)nc(N)c2c1C`: the T/C reads like this: (dose: 6.25 mg/kg/injection, schedule: Q01DX009 (ip), vehicle: Klucel (hydroxypropylcellulose) (HPC)) 121 % of control; (dose: 12.5 mg/kg/injection, schedule: Q01DX009 (ip), vehicle: Klucel (hydroxypropylcellulose) (HPC)) 116 % of control; (dose: 12.5 mg/kg/injection, schedule: Q04DX003 (ip), vehicle: water) 116 % of control and 91 % of control; (dose: 25.0 mg/kg/injection, schedule: Q01DX009 (ip), vehicle: Klucel (hydroxypropylcellulose) (HPC)) 114 % of control; (dose: 25.0 mg/kg/injection, schedule: Q04DX003 (ip), vehicle: water) 114 % of control and 122 % of control; (dose: 50.0 mg/kg/injection, schedule: Q04DX003 (ip), vehicle: water) 155 % of control. Where the note is “dose: 100.0 mg/kg/injection, schedule: Q04DX003 (ip), vehicle: water”, the T/C was 117 % of control and 90 % of control.

For the molecule `O=C1OC(c2ccccc2)(c2ccccc2)C2CC12c1ccccc1` (stereo not given), the T/C reads like this: (dose: 100.0 mg/kg/injection, schedule: Q01DX001 (ip), vehicle: Klucel (hydroxypropylcellulose) (HPC)) 95 % of control; (dose: 200.0 mg/kg/injection, schedule: Q01DX001 (ip), vehicle: Klucel (hydroxypropylcellulose) (HPC)) 95 % of control; (dose: 400.0 mg/kg/injection, schedule: Q01DX001 (ip), vehicle: Klucel (hydroxypropylcellulose) (HPC)) 88 % of control.

`CCCCCCCCCCCCCCCCOc1ccccc1CNc1cc(Cl)ccc1Cl`: the T/C is 100 % of control under setting [1]; 100 % of control under setting [3]; 91 % of control under setting [2]; 100 % of control under setting [4]; 100 % of control (dose: 400.0 mg/kg/injection, schedule: Q01DX009 (ip), vehicle: saline with Tween-80); 86 % of control (dose: 400.0 mg/kg/injection, schedule: Q04DX003 (ip), vehicle: saline with Tween-80).

Regarding `O=C(CBr)c1ccc(C(F)(F)F)cc1`, the T/C is 99 % of control (dose: 6.25 mg/kg/injection, schedule: Q01DX009 (ip), vehicle: DMSO) and 88 % of control (dose: 12.5 mg/kg/injection, schedule: Q01DX009 (ip), vehicle: DMSO).

In the case of `CCC(=O)NCC(CN(C)C)(c1ccccc1)c1ccccc1`, the T/C (dose: 100.0 mg/kg/injection, schedule: Q01DX001 (ip), vehicle: saline with Tween-80) was 112 % of control and the T/C (dose: 200.0 mg/kg/injection, schedule: Q01DX001 (ip), vehicle: saline with Tween-80) is 100 % of control.

Consider `c1ccc(N2N=NC3CCOC32)cc1` (stereo not given), for which the T/C was 94 % of control under setting [10]; 102 % of control under setting [11]; 106 % of control (dose: 200.0 mg/kg/injection, schedule: Q01DX005 (ip), vehicle: saline with Tween-80).

Take `O=C(Nc1ncn[nH]1)c1ccccc1O`: the T/C (dose: 50.0 mg/kg/injection, schedule: Q01DX005 (ip), vehicle: Klucel (hydroxypropylcellulose) (HPC)) was 99 % of control; the T/C (dose: 100.0 mg/kg/injection, schedule: Q01DX005 (ip), vehicle: Klucel (hydroxypropylcellulose) (HPC)) is 91 % of control; the T/C (dose: 200.0 mg/kg/injection, schedule: Q01DX005 (ip), vehicle: Klucel (hydroxypropylcellulose) (HPC)) is 86 % of control.

For the molecule `NC(N)=N/N=C/COc1cccnc1`, the T/C runs as follows: under setting [5], 97 % of control; under setting [6], 100 % of control; under setting [7], 97 % of control.

The values above are taken from PubChem BioAssay AID330 (DTP/NCI, 2004).
